The structures appear in SMILES notation. pEC50, pIC50: −log10 of the molar value. Bounds are passed on as bounds.

The subject of test [1] is KMS11 (human myeloma cell line). Description: Cell proliferation assay (CellTiter-Glo) in KMS11 cells. The format is cell-based. The conditions noted are these: KMS-11, 72 h, Table 5, 3 days, read-out: KMS11-luc EC50. The method in brief: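 KMS11 cells at 2000 per well in IMDM/10% FBS were exposed to compound for 3 days. Viability was read by CellTiter-Glo luminescence.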

In another test the target is Pim1 kinase (Homo sapiens, UniProt P11309). Description: Pim1 AlphaScreen assay (high ATP). (In general: Bead proximity is the source of the signal in Alpha formats.)
The target in the next test is Pim2 kinase (Homo sapiens, UniProt Q9P1W9). Description: Pim2 AlphaScreen assay (high ATP).
The target of another test is Pim3 kinase (Homo sapiens, UniProt Q86V86). Nature of the test: Pim3 AlphaScreen assay (high ATP).

Chain of Pim1 kinase (P11309 whole entry): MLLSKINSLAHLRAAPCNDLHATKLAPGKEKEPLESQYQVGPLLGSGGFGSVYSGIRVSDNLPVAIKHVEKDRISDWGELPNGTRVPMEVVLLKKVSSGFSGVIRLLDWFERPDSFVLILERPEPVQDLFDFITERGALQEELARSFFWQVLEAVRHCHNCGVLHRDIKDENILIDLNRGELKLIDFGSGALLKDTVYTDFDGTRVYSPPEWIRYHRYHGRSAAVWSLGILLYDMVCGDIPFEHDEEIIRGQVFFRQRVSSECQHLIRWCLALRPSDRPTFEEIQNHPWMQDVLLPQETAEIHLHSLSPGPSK
Chain of Pim2 kinase (Q9P1W9 whole entry): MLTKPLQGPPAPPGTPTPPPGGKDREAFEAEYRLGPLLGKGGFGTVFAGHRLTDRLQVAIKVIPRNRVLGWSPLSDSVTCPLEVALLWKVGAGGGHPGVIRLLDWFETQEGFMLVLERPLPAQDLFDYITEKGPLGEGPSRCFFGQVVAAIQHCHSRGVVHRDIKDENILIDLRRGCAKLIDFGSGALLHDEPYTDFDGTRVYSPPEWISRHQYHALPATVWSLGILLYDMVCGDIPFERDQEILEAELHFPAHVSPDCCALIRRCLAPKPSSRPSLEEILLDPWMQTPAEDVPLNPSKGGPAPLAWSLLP
Experimental for Pim3 kinase: The activity of Pim 1, Pim 2, & Pim 3 is measured using a homogeneous bead based system quantifying the amount of phosphorylated peptide substrate resulting from kinase-catalyzed phosphoryl transfer to a peptide substrate. Compounds to be tested are dissolved in 100% DMSO and directly distributed to a white 384-well plate at 0.25 μl per well. […] This is followed by the addition of 5 μl/well of Pim 1, Pim 2 or Pim 3 kinase in assay buffer (concentrations described below). Final assay concentrations (described below) are in 2.5% DMSO. The reactions are performed for ˜2 hours, then stopped by the addition of 10 μl of 0.75 μg/ml anti-phospho Ser/Thr antibody (Cell Signaling), 10 μg/ml Protein A AlphaScreen beads (Perkin Elmer), and 10 μg/ml streptavidin coated AlphaScreen beads in stop/detection buffer (50 mM EDTA, 95 mM Tris, pH=7.5, 0.01% Tween-20). The stopped reactions are incubated overnight in the dark. The phosphorylated peptide is detected via an oxygen anion initiated chemiluminescence/fluorescence cascade using the Envision plate reader (Perkin Elmer).

A word on the pEC50: it is the negative decadic logarithm of the EC50, by convention in mol/L. As usually defined, the pIC50 is the IC50 on a negative log10 scale, so that one unit is a factor of ten. Read a low pIC50 as a high IC50. For `CCc1cc(F)c(-c2nc(C(=O)Nc3cnccc3[C@H]3C[C@@H](N)[C@](C)(O)[C@@H](C)C3)ccc2F)c(F)c1` [Example 2, N-(4-((1R,3R,4R,5S)-3-amino-4-hydroxy-4,5-dimethylcyclohexyl)pyridin-3-yl)-6-(4-ethyl-2,6-difluorophenyl)-5-fluoropicolinamide], the negative logarithm of the EC50 (pEC50) in test [1] is 7.23. In addition, the pIC50 is 10.30 on Pim1 kinase, 8.57 against Pim2 kinase and 8.88 against Pim3 kinase.
Taken in the same sequence, the figures for `C[C@H]1C[C@@H](c2ccncc2NC(=O)c2ccc(F)c(-c3c(F)cc(OC4CCOCC4)cc3F)n2)C[C@@H](N)[C@]1(C)O` [Example 65, N-(4-((1R,3R,4R,5S)-3-amino-4-hydroxy-4,5-dimethylcyclohexyl)pyridin-3-yl)-6-(2,6-difluoro-4-(tetrahydro-2H-pyran-4-yloxy)phenyl)-5-fluoropicolinamide] were 7.42, 10.52, 8.67 and 9.14.
Taken in the same sequence, the figures for `C[C@@H]1C[C@H](c2ccncc2NC(=O)c2ccc(F)c(-c3c(F)cc(CN4CCCC4=O)cc3F)n2)C[C@H](O)[C@@]1(C)O` [Example 78, 6-(2,6-difluoro-4-((2-oxopyrrolidin-1-yl)methyl)phenyl)-N-(4-((1S,3S,4S,5R)-3,4-dihydroxy-4,5-dimethylcyclohexyl)pyridin-3-yl)-5-fluoropicolinamide] were under 5.00, 7.73, 5.80 and 6.01.
For `COCc1cc(F)c(-c2nc(C(=O)Nc3cnccc3[C@H]3C[C@@H](N)[C@](C)(O)[C@@H](C)C3)ccc2F)c(F)c1` [Example 4, N-(4-((1R,3R,4R,5S)-3-amino-4-hydroxy-4,5-dimethylcyclohexyl)pyridin-3-yl)-6-(2,6-difluoro-4-(methoxymethyl)phenyl)-5-fluoropicolinamide], in that order: 7.47, 10.05, 8.36 and 8.61.
Regarding `C[C@H]1C[C@@H](c2ccncc2NC(=O)c2nc(-c3c(F)cccc3F)c(F)cc2N)C[C@@H](N)[C@]1(C)O` [Example 147, 3-amino-N-(4-((1R,3R,4R,5S)-3-amino-4-hydroxy-4,5-dimethylcyclohexyl)pyridin-3-yl)-6-(2,6-difluorophenyl)-5-fluoropicolinamide], the negative logarithm of the EC50 (pEC50) in test [1] is 7.49. Further, the pIC50 is 10.40 at Pim1 kinase, 8.63 against Pim2 kinase and 9.28 against Pim3 kinase.
For the compound `CCN1CCC(c2cc(F)c(-c3nc(C(=O)Nc4cnccc4[C@H]4C[C@@H](O)[C@](C)(O)[C@@H](C)C4)ccc3F)c(F)c2)CC1` [Example 115, N-(4-((1R,3R,4R,5S)-3,4-dihydroxy-4,5-dimethylcyclohexyl)pyridin-3-yl)-6-(4-(1-ethylpiperidin-4-yl)-2,6-difluorophenyl)-5-fluoropicolinamide], the negative logarithm of the EC50 (pEC50) in test [1] is 6.51. The negative-log IC50 (pIC50) against Pim1 kinase is 9.74; against Pim2 kinase, 6.98; on Pim3 kinase it was 7.48.
For `C[C@H]1C[C@@H](c2ccncc2NC(=O)c2ccc(F)c(-c3c(F)cc(C4CCOCC4)cc3F)n2)C[C@@H](N)[C@]1(C)O` [Example 71, N-(4-((1R,3R,4R,5S)-3-amino-4-hydroxy-4,5-dimethylcyclohexyl)pyridin-3-yl)-6-(2,6-difluoro-4-(tetrahydro-2H-pyran-4-yl)phenyl)-5-fluoropicolinamide], in that order: 7.09, 10.70, 8.83 and 9.14.
For `C[C@H]1C[C@@H](c2ccncc2NC(=O)c2ccc(F)c(-c3c(F)cc(C4(O)CCCC4)cc3F)n2)C[C@@H](N)[C@]1(C)O` [Example 82, N-(4-((1R,3R,4R,5S)-3-amino-4-hydroxy-4,5-dimethylcyclohexyl)pyridin-3-yl)-6-(2,6-difluoro-4-(1-hydroxycyclopentyl)phenyl)-5-fluoropicolinamide], in that order: 7.37, 10.70, 8.57 and 8.93.
For `C[C@H]1C[C@@H](c2ccncc2NC(=O)c2ccc(F)c(-c3c(F)cc(OCC4CCOCC4)cc3F)n2)C[C@@H](N)[C@]1(C)O` [Example 101, N-(4-((1R,3R,4R,5S)-3-amino-4-hydroxy-4,5-dimethylcyclohexyl)pyridin-3-yl)-6-(2,6-difluoro-4-((tetrahydro-2H-pyran-4-yl)methoxy)phenyl)-5-fluoropicolinamide], in that order: 6.48, 10.40, 8.66 and 9.07.
In the case of `C[C@H]1C[C@@H](c2ccncc2NC(=O)c2ccc(F)c(-c3c(F)cc(C4(C#N)CCOCC4)cc3F)n2)C[C@@H](N)[C@]1(C)O` [Example 88, N-(4-((1R,3R,4R,5S)-3-amino-4-hydroxy-4,5-dimethylcyclohexyl)pyridin-3-yl)-6-(4-(4-cyanotetrahydro-2H-pyran-4-yl)-2,6-difluorophenyl)-5-fluoropicolinamide], in test [1], the negative logarithm of the EC50 (pEC50) is 7.00. The values for the pIC50 against Pim1 kinase, against Pim2 kinase and at Pim3 kinase were 10.52, 8.24 and 8.25, respectively.
For `Cc1cc(F)c(-c2nc(C(=O)Nc3cnccc3[C@H]3C[C@@H](N)[C@](C)(O)[C@@H](C)C3)c(N)cc2F)c(F)c1` [Example 146, 3-amino-N-(4-((1R,3R,4R,5S)-3-amino-4-hydroxy-4,5-dimethylcyclohexyl)pyridin-3-yl)-6-(2,6-difluoro-4-methylphenyl)-5-fluoropicolinamide], in that order: 7.31, 10.70, 8.78 and 9.28.
For `COCCCOc1cc(F)c(-c2nc(C(=O)Nc3cnccc3[C@H]3C[C@@H](N)[C@](C)(O)[C@@H](C)C3)ccc2F)c(F)c1` [Example 100, N-(4-((1R,3R,4R,5S)-3-amino-4-hydroxy-4,5-dimethylcyclohexyl)pyridin-3-yl)-6-(2,6-difluoro-4-(3-methoxypropoxy)phenyl)-5-fluoropicolinamide], in that order: 6.47, 10.40, 8.67 and 9.16.
Taken in the same sequence, the figures for `C[C@H]1C[C@@H](c2ccncc2NC(=O)c2ccc(F)c(-c3c(F)cc(S(C)(=O)=O)cc3F)n2)C[C@@H](O)[C@]1(C)O` [Example 9, 6-(2,6-difluoro-4-(methylsulfonyl)phenyl)-N-(4-((1R,3R,4R,5S)-3,4-dihydroxy-4,5-dimethylcyclohexyl)pyridin-3-yl)-5-fluoropicolinamide] were 5.33, 8.07, 6.00 and 5.79.
For the compound `COc1cc(F)c(-c2nc(C(=O)Nc3cnccc3[C@H]3C[C@@H](O)[C@](C)(O)[C@@H](C)C3)ccc2F)c(F)c1` [Example 22, 6-(2,6-difluoro-4-methoxyphenyl)-N-(4-((1R,3R,4R,5S)-3,4-dihydroxy-4,5-dimethylcyclohexyl)pyridin-3-yl)-5-fluoropicolinamide], the pEC50 in test [1] is 6.42. The figures for the pIC50 against Pim1 kinase, against Pim2 kinase and against Pim3 kinase were 9.07, 6.70 and 7.40, respectively.
